From patent publication US6051570A, “Benzimidazole derivatives as antiulcer agents, process for their preparation and pharmaceutical compositions containing them” (Dr. Reddy's Research Foundation, priority 1998, dated 2000)
Structures can show the parent of a compound that is named as a salt.

Legend:
[1] = target: T1, H^+ /K^+ - ATPase (Oryctolagus cuniculus, UniProt P27112); assay: H+/K+-ATPase inhibition (rabbit gastric mucosa enzyme, Pi liberated by ATP hydrolysis); type: biochemical; conditions: pH 6.5, 37° C., 15 min
T1 construct: Rabbit gastric mucosa containing H^+ /K^+ - ATPase activity is isolated; from tissue; host or cells: rabbit gastric fundic mucosa, membrane fraction (sucrose-step ultracentrifugation pellet)
T1 sequence (P27112 2-1035 limits assumed): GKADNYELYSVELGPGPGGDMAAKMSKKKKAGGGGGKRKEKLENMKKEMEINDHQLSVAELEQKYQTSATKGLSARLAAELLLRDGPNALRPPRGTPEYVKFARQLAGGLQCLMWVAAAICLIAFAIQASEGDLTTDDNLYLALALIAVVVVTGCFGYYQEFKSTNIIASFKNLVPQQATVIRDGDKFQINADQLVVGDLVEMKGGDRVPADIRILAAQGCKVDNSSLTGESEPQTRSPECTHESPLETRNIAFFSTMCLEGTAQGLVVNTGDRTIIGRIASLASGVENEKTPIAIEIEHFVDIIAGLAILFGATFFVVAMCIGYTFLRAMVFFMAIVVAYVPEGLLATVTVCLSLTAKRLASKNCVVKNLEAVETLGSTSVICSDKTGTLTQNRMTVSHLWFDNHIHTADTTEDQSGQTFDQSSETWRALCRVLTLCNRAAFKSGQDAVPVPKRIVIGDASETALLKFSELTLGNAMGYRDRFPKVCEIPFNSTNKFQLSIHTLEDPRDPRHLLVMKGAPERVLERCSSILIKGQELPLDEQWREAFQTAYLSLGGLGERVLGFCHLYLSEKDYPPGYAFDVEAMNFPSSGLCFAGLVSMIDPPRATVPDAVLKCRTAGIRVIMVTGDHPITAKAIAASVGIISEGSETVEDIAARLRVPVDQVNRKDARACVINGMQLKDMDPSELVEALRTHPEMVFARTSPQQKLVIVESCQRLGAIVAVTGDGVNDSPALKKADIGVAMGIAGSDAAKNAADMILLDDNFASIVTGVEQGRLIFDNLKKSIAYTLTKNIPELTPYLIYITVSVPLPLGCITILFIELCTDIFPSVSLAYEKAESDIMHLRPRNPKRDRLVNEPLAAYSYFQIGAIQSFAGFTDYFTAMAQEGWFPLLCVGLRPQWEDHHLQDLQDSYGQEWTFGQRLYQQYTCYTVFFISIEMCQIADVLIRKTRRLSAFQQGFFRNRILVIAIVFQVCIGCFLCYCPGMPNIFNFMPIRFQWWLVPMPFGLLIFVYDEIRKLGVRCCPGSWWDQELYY
T1 sequence (P18597 whole entry partner): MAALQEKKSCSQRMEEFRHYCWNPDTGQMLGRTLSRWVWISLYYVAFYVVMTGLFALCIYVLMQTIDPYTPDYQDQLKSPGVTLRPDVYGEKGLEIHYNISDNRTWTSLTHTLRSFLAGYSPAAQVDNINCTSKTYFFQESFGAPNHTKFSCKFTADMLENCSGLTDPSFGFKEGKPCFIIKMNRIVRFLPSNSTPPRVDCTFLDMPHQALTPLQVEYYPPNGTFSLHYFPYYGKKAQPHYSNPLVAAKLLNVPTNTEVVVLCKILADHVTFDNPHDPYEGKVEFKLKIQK
From the text: A) H^+ /K^+ - ATPase inhibition
The most efficient method for reducing acid-related gastrointestinal disorder is through the inhibition of proton pump on the gastric parietal cell. The proton pump (H^+ /K^+ ATPase) is a membrane bound enzyme that exchanges protons for K^+ ions across the apical surface. Associated with this is a K^+ /Cl^- cotransporter which recycles the K^+ together with the Cl^- across the apical surface where HCl is formed by the Cl^- ions together with the secreted H^+. This enzyme has an ATP hydrolyzing activity which requires intravesicular K^+.
Principle [formula] Pi liberated is estimated, the amount of Pi liberated is proportional to the enzyme activity.
(i) Preparation of H^+ /K^+ - ATPase […]
Assay is carried out according to the protocol described by Beil, R (Beil, R. Br. J. Pharmacol, 1984, 82:651). […] After incubation for 15 min. at 37° C., the reaction is stopped by adding equal volume of phosphate reagent and the Pi produced by the hydrolysis of ATP is determined by the method of Lin et al. (Lin T -I. & Morales, M. F. Anal. Biochem. 1977, 77:10). The H^+ /K^+ - ATPase activity is calculated by subtracting the basal activity (in absence of KCl) from the rate of hydrolysis of ATP in the presence of K^+. The percent inhibition were determined for the test compounds.

[2] = test system: gastric acid secretion; assay: Gastric acid antisecretory activity in pylorus ligated rat model (intraduodenal); type: in vivo, Male wistar rats; conditions: for ED50: pylorus ligated rat, read-out: ED50 value (in vivo experiment, gastric acid secretion); for ED50 / inhibition in vivo at 10 mg/kg: intraduodenal, 2 h; for inhibition in vivo at 10 mg/kg: Rattus norvegicus
Method: B) Gastric acid antisecretory activity The inhibitory effect on gastric acid secretion is determined in pylorus ligated rat model according to Shay et al. ([…]., Gruenstein, H. & Siplet, H. Gastroenterology 1945, 5:43). Male wistar rats weighing about 150-200 g fasted for 24 h with ad libitum are used. Under ether anaesthesia the laparotomy is performed and pylorus portion of the stomach is isolated and ligated with surgical suture. The test drug/vehicle is administered intraduodenally and the abdominal incision is closed using Michael clips. After 2 h, the animals were sacrificed with excess ether anaesthesia and stomach is removed. The gastric contents are collected and centrifuged at 10,000 rpm for 10 min. The volume of the gastric juice is measured and acid concentration is estimated by titrating an aliquot of the gastric juice against 0.004N NaOH using phenolphthalein as the indicator. Total acid output is expressed as milliequivalents/L/kg/h and volume of gastric juice as mL/kg/h. The ED50 value for the test compound is calculated according to graphical method. Omeprazole is used as a standard compound.

| SMILES | inhibition in vivo at 10 mg/kg [2] [%] | also measured |
| --- | --- | --- |
| COc1ccnc(C[S+]([O-])c2nc3cc(N4CCOCC4)c(F)cc3[nH]2)c1C (stereo not shown) [Example 57, 2-[[(4-Methoxy-3-methyl)pyridin-2-yl]methylsulfinyl]-6-fluoro-5-(morpholin-1-yl)-1H-benzimidazole] |  | IC50 [1]: 2.6 µM; ED50 [2]: 3 ± 0.2 mg/kg |
| COc1ccnc(C[S+]([O-])c2nc3cc(N4CCCCC4)c(F)cc3[nH]2)c1C (stereo not shown) [Example 67, 2-[[(4-Methoxy-3-methyl)pyridin-2-yl]methylsulfinyl]-6-fluoro-5-(piperidin-1-yl)-1H-benzimidazole] | 100 |  |
| COc1ccnc(C[S+]([O-])c2nc3cc(N4CCCCC4)c(F)cc3[nH]2)c1C (stereo not shown) [Example 68, 2-[[(4-Methoxy-3-methyl)pyridin-2-yl]metlhylsulfinyl]-6-fluoro-5-(piperidin-1-yl)-1H-benzimidazole, sodium salt] |  | % Inhibition at 10 mg/kg [2]: 100% |
| Cc1c(N2CCCCC2)ccnc1C[S+]([O-])c1nc2cc(N3CCCCC3)c(F)cc2[nH]1 (stereo not shown) [Example 69] | 97 |  |
| COc1ccnc(C[S+]([O-])c2nc3cc(N4CCN(C(=O)OC(C)(C)C)CC4)c(F)cc3[nH]2)c1C (stereo not shown) [Example 73, 2-[[(4-Methoxy-3methyl)pyridin-2-yl]methylsulfinyl]-6-fluoro-5-(4-t-butyloxycarbonylpiperazin-1-yl)-1H-benzimidazole] | 93 |  |
| COc1ccnc(C[S+]([O-])c2nc3cc(N4CCCCCC4)c(F)cc3[nH]2)c1C (stereo not shown) [Example 80, 2-[[(4-Methoxy-3-methyl)pyridin-2-yl]methylsulfinyl]-6-fluoro-5-(hexamethyleneimin-1-yl)-1H-benzimidazole] | 100 |  |
| COc1ccnc(C[S+]([O-])c2nc3cc(N4CCCCCC4)c(F)cc3[nH]2)c1C (stereo not shown) [Example 81, 2-[[(4-Methoxy-3-methyl)pyridin-2-yl]methylsulfinyl]-6-fluoro-5-(hexamethyleneimin-1-yl)-1H-benzimidazole, sodium salt] |  | % Inhibition at 10 mg/kg [2]: 100% |
| Cc1c(N2CCOCC2)ccnc1C[S+]([O-])c1nc2cc(N3CCCCCC3)c(F)cc2[nH]1 (stereo not shown) [Example 82, 2-[[(4-(Morpholin-1-yl)-3-methyl)pyridin-2-yl]methylsulfinyl]-6-fluoro-5-(hexamethyleneimin-1-yl)-1H-benzimidazole] | 100 |  |
| COc1ccnc(C[S+]([O-])c2nc3cc(N4CCCC4)c(F)cc3[nH]2)c1C (stereo not shown) [Example 84, 2-[[(4-Methoxy-3-methyl)pyridin-2-yl]methylsulfinyl]-6-fluoro-5-(pyrrolidin-1-yl)-1H-benzimidazole] | 93 |  |
| COc1ccnc(C[S+]([O-])c2nc3cc(N4CCOCC4)ccc3[nH]2)c1C (stereo not shown) [Example 87, 2-[[(4-Methoxy-3-methyl)pyridin-2-yl]methylsulfinyl]-5-(morpholin-1-yl)-1H-benzimidazole] | 90 |  |
| COc1ccnc(C[S+]([O-])c2nc3cc(N4CCN(C(=O)OC(C)(C)C)CC4)ccc3[nH]2)c1C (stereo not shown) [Example 90, 2-[[(4-Methoxy-3-methyl)pyridin-2-yl]methylsulfinyl]-5-(4-t-butyloxycarbonylpiperazin-1-yl)-1H-benzimidazole] | 100 |  |
| COc1ccnc(C[S+]([O-])c2nc3cc(N4CCCCCC4)ccc3[nH]2)c1C (stereo not shown) [Example 91, 2-[[-(4-Methoxy-3-methyl)pyridin-2-yl]methylsulfinyl]-5-(hexamethyleneimin-1-yl)-1H-benzimidazole] | 97 |  |
| COc1ccc2[nH]c([S+]([O-])Cc3ncc(C)c(OC)c3C)nc2c1 (stereo not shown) [Omeprazole, 2-[[(4-methoxy-3,5-dimethyl)pyridin-2-yl]methylsulfinyl]-5-methoxy-1H-benzimidazole, reference compound] | 75 | IC50 [1]: 4.35 ± 0.56 µM; ED50 [2]: 4.96 ± 0.5 mg/kg |
